Measured values from US20030134824A1, “Beta-cyclodextrin dimers and phthalocyanines and uses thereof” (priority 2001, published 2003).

What was measured:
[1] = Microcalorimetric titration with p-tert-butylbenzoic acid; type: binding
Protocol: β-cyclodextrin (CD) monomer 23 (6.4 mg, 0.005 mmol) was dissolved in 0.20 M pH 9.0 Na2CO3/NaHCO3 buffer (5.00 mL) to make a 1.0 mM solution. p-tert-Butylbenzoic acid (11.0 mg, 0.062 mmol) was dissolved in 6.16 mL of the same buffer to make a 10.0 mM solution. Both solutions were degassed under reduced pressure with a sonicator for 5 minutes immediately prior to the binding study. The β-CD monomer 23 solution (2.50 mL) was put into the sample cell compartment of an Omega microcalorimeter, whereas the p-tert-butyl-benzoic acid was loaded in a 250 μL syringe and then assembled onto the calorimeter. The system was equilibrated until RMS error was less than 5×10^−3 with the syringe spinning at 400 rpm. The p-tert-butylbenzoic acid solution was then injected into the cell in 25 injections (10 μL, 7 seconds per injection). […] Injection data were automatically collected by the computer, and the data was analyzed by ORIGIN software with the single-binding-site model. […]
β-Cyclodextrin (4.0 mg, 0.0035 mmol) was dissolved in 0.20 M pH 9.0 Na2CO3/NaHCO3 buffer (3.53 mL) to make a 1.0 mM solution. p-tert-butyl-benzoic acid (10.0 mg, 0.056 mmol) was dissolved in 5.60 mL of the same buffer to make a 10.0 mM solution. […] Injection data were automatically collected by the computer, and the data was analyzed by ORIGIN software with the single-binding-site model. […]

[2] = Binding of BNS to β-cyclodextrin dimers by fluorescence titration; conditions: water, ca. 25° C.
Protocol: Binding constants for a few of the possible pairs were determined by a fluorescence competition method previously used for cyclodextrin dimers, competing the substrate of interest with 2-(p-tert-butylanilino)naphthalene-6-sulfonic acid 22, (termed BNS, Breslow et al. 1989). [drawing 26]
BNS is fluorescent when bound into a hydrophobic cavity such as that of a cyclodextrin, but only weakly fluorescent in water solution. Only the sulfonated phthalocyanines were soluble enough for this method.
The binding constant of BNS 22 to each dimer was determined as previously (Breslow et al. 1989, Ruebner et al. 1999) by titrating BNS into a dimer solution in a fluorescence cell, then exciting this solution at 330 nm and measuring the fluorescent emission at 438 nm. The binding constant of phthalocyanine to dimer was measured by titration of BNS into a 1:1 mixture of dimer and phthalocyanine. […] The binding constant of BNS to each dimer is given by K=intercept/slope, and the binding constant of the phthalocyanine can be calculated as KI=(K/K′−1)/[I], where K′ is the apparent binding constant of BNS to the dimer in presence of phthalocyanine, and [I] is the concentration of phthalocyanine (Ruebner et al. 1996). […]
The binding constant for BNS to cyclodextrin dimer 21 was determined by the fluorescence emission method. […] The area under the peak between 400 and 500 nm was measured for each addition. […]

[3] = Photochemical cleavage of the dimers by bound phthalocyanines, monitored by 1H NMR; type: physicochemical; conditions: dimer 2.5 mM, photosensitizer 0.14 mM, 5% DMSO-d6 in D2O, O2, light >540 nm, 25° C.
Protocol: All of the photocleavage reactions were carried out using the same apparatus, as described previously (U.S. Ser. No. 09/352,529, filed Jul. 13, 1999, now allowed; Ruebner et al. 1999). A halogen lamp (50 W) was set up with a 540 nm cut-off filter and a focusing lens. The NMR tube in which the reactions were run was placed in the most strongly focused area, and oxygen was bubbled continuously through the solution while the photocleavage reactions were run. To monitor the reactions, ^1H NMR's were taken at regular intervals, whereby the disappearance of the alkene peaks and the appearance of the single formyl peak could be observed.
The dimers were at a concentration of 2.5 mM while the photosensitizers were at 0.14 mM in 5% DMSO-d6 in D2O. Here dimer 21 was cleaved using phthalocyanine 11. It can clearly be seen that the amount of alkene (doublet at ˜6.2 ppm) decreases and the formyl peak (singlet at ˜8.4 ppm) appears as the reaction progresses, and that no other peaks are seen in this area. […]
To a solution of β-cyclodextrin dimer 17 (5.9 mg, 2.35×10^−6 mol) and potassium carbonate (2 mg) in D2O (1.00 mL) was added a 3 mM solution of phthalocyanine 6 (0.17 mg, 1.50×10^−7 mol) in DMSO-d6 (50 μL). […] The reaction was monitored by ^1H NMR, by observance of the disappearance of the alkene peaks and the appearance of the formyl peak. […]

SMILES	binding constant with 4-tert-butylbenzoic acid [1]	binding constant of BNS to the dimer [2] [M⁻¹]	time for 50% cleavage of the dimer by phthalocyanine 6 [3] [min]	time for 50% cleavage of the dimer by phthalocyanine 14 [3] [min]
OC[C@H]1O[C@@H]2O[C@H]3[C@H](O)[C@@H](O)[C@@H](O[C@H]4[C@H](O)[C@@H](O)[C@@H](O[C@H]5[C@H](O)[C@@H](O)[C@@H](O[C@H]6[C@H](O)[C@@H](O)[C@@H](O[C@H]7[C@H](O)[C@@H](O)[C@@H](O[C@H]8[C@H](O)[C@@H](O)[C@@H](O[C@H]1[C@H](O)[C@H]2O)O[C@@H]8CO)O[C@@H]7CO)O[C@@H]6CO)O[C@@H]5CO)O[C@@H]4CO)O[C@@H]3CO [β-cyclodextrin]	1.7×10^4 M^−			
CNC(=O)CCCS/C=C\SCCCC(=O)NC [Dimer 18]		418000	55	6
